According to patent US20180311124A1, “CLIMBAZOLE MICROCAPSULE AND HAIR CARE COMPOSITION COMPRISING SURFACTANT AND CLIMBAZOLE” (priority 2015, published 2018):
Read-outs that look alike come from different tables or passages of the source.

Tests used:
M. Furfur = test: ZOI test comparing with PS latex (Example 5); type: cell-based, Malassezia furfur; settings: ruptured by rubbing; 1 g shampoo of table 3 diluted with 3.9 g water and 0.1 g model sebum
Description: Zone of Inhibition (ZOI) Method • 1. L&N agar plates were appropriately labelled. • 2. 0.25 ml or 1 ml of quarter strength inoculum was pipetted onto the surface of each plate. • 3. The inoculum was spread evenly over the whole surface of the plates using a sterile spreader. • 4. Filter paper discs were added, in triplicate to the control plate and plates labelled 1 to 5 unruptured and left for 30 minutes in order to soak up any moisture from the agar. • 5. 15 μl of each (diluted, unruptured) formulation were pipetted onto each of the 3 discs in the appropriate agar plate. The liquid was allowed to soak into the disc. • 6. An additional disc was placed over the original discs in the control and 1 to 5 unruptured plates and the liquid allowed to soak into the additional discs. • 7. The discs from the previously ruptured samples were added in triplicate to separate Leeming and Notman agar plates and allowed to absorb moisture from the plates. • 8. […] Any zone of inhibition observed was measured and recorded.
The efficacy of climbazole microcapsules on the growth of M. Furfur measured using Zone of Inhibition (ZOI) when the microcapsules had been ruptured by simple rubbing to simulate hair washing was tested both for the solvent containing core shell microcapsules according to the invention and the latex particles according to the prior art. […]

[1] = manufacturer's published literature; cited from earlier work
[2] = Screen of perfume components, perfume mixtures and oils for ability to solubilise climbazole
Description: A number of perfume components, perfume mixtures and oils considered to be safe to use on scalp were screened to evaluate their ability to solubilise climbazole. Because emulsion polymerisation also encapsulates the solvent an efficient solvent is needed to get a high loading of climbazole into a microcapsule.

## CC(C)(C)C(=O)C(Oc1ccc(Cl)cc1)n1ccnc1 (racemic) [climbazole, (RS)-1-(4-Chlorophenoxy)-1-imidazol-1-yl-3,3-dimethylbutan-2-one]
M. Furfur
  Ruptured mean ZOI (mm): 1.00^1 mm
[1]
  solubility: soluble in alcohol, glycols, surfactants and certain perfume oils

## CCOC(=O)C=Cc1ccccc1 [Ethyl Cinnamate]
[2]; solvent screened at the solvent:climbazole ratios tested
  ability to solubilise climbazole: failed to solubilise it at any ratio tested

## CC(O)CO (stereo not drawn) [propylene glycol]
[2]
  ability to solubilise climbazole: failed to solubilise it at any ratio tested

## CC(=O)OCc1ccccc1 [Benzyl Acetate]
[2]
  ratio of solvent to climbazole: 5:1

## Coconut oil
[2]
  ability to solubilise climbazole: failed to solubilise it at any ratio tested
